Among the data in patent US9365588B2, “Benzoxazines as modulators of ion channels” (Vertex Pharmaceuticals Incorporated, priority 2011, dated 2016) are IC50 values, retold here.

In this test the target is human NaV 1.7 (Homo sapiens, UniProt Q15858). As to the kind of experiment: E-VIPR optical membrane potential assay with electrical stimulation. Particulars: sodium channel inhibition; read-out: Binned Activity Data (IC50). Format: cell-based. In a few lines:
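Membrane-potential read-out: background-subtracted 460 nm/580 nm ratio during a 9 s current-controlled stimulus, 400 Hz scan. Before stimulation, NaV1.7-HEK cells carried coumarin/oxonol dye and compound (final DMSO 0.625%) for 20–35 min at room temperature; tetracaine 125 μM served as positive control.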

SMILES strings stand for the structures.

Chain of human NaV 1.7 (Q15858 whole entry): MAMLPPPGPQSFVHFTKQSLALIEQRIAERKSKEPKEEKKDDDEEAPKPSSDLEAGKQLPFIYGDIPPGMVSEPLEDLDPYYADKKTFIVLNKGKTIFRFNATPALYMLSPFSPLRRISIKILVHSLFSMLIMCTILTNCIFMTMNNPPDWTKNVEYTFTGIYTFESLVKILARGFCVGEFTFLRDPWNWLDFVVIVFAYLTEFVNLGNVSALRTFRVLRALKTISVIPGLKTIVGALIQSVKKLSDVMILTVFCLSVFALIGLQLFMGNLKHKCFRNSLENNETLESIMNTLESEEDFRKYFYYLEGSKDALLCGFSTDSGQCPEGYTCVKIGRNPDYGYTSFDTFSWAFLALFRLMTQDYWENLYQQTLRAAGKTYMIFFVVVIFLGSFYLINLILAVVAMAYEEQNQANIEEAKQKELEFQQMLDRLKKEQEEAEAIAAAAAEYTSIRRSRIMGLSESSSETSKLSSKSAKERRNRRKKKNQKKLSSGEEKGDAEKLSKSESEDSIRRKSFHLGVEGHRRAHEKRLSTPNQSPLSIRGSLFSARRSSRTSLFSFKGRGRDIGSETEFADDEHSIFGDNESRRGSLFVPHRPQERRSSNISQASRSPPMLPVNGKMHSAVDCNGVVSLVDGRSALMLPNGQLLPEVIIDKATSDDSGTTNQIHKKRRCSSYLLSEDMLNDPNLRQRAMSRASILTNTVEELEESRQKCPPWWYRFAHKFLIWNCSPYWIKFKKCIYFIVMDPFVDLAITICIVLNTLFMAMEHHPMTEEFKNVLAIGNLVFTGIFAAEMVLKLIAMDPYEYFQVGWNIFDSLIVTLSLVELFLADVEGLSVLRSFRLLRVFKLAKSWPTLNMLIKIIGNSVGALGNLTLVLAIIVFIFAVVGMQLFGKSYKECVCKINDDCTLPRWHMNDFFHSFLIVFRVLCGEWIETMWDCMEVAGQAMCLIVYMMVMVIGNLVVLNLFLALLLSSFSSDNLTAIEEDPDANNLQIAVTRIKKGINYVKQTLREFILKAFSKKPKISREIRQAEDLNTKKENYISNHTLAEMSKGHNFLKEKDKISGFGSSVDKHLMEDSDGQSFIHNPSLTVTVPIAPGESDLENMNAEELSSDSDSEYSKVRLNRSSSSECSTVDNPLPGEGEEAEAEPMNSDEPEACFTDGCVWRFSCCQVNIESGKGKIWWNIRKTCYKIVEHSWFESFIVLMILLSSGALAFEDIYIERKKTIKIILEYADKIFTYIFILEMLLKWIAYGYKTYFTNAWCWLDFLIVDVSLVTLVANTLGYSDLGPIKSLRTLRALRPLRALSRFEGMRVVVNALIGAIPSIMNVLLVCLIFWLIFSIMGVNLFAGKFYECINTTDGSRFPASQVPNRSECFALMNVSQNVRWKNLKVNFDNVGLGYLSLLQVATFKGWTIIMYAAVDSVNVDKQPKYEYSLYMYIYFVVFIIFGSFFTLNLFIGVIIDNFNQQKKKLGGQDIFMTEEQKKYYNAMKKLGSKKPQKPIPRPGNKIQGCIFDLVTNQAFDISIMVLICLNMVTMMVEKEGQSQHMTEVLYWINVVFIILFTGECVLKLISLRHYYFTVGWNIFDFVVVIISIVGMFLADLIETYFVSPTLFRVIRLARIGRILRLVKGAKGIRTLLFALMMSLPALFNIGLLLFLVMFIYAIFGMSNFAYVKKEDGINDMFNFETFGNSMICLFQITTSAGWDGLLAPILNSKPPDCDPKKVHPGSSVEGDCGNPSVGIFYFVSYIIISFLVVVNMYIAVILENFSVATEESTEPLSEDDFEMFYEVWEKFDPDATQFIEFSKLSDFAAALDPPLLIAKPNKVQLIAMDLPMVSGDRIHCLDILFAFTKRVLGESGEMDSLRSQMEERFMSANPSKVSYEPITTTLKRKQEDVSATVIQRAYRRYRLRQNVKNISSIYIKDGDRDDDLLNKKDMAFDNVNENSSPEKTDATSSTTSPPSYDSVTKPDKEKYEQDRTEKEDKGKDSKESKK

With `CCNS(=O)(=O)c1ccc(C(=O)N2CCC3(CC2)Oc2ccccc2-n2c(C(F)(F)F)ccc23)cc1` [Compound 590], the 50% inhibitory concentration (IC50) is at most 2000 nM. Regarding `COC[C@H](C)Oc1ccc(C(=O)N2CCC3(CC2)Oc2ccccc2-n2cccc23)cc1C(F)(F)F` [Compound 95], the IC50 was at most 2000 nM. Consider `Cn1cc2c(n1)-c1ccccc1OC21CCN(C(=O)c2ccc3ncsc3c2)CC1` [Compound 173], for which the half-maximal inhibitory concentration (IC50) was at most 2000 nM. In the case of `CCc1ccc(C(=O)N2CCC3(CC2)Oc2ccccc2-n2c(C)ccc23)cc1OC` [Compound 735] it was at most 2000 nM; in that of `COc1cc(C(=O)N2CCC3(CC2)Oc2cc(Cl)ccc2-n2cccc23)ccc1C1CC1` [Compound 512], at most 2000 nM. Turning to `CC(C)CS(=O)(=O)c1ccc(C(=O)N2CCC3(CC2)Oc2ccccc2-n2c(C(F)(F)F)ccc23)nc1` [Compound 874], the IC50 was at most 2000 nM. On to `CCCOc1ccc(C(=O)N2CCC3(CC2)Oc2ccccc2-c2c3cnn2C)cc1C(F)(F)F` [Compound 387], for which the IC50 is at most 2000 nM. For the compound `Cn1cc2c(n1)-c1ccccc1OC21CCN(C(=O)c2ccc3[nH]ncc3c2)CC1` [Compound 595], the IC50 was at most 2000 nM. Take `Cc1cc(C(=O)N2CCC3(CC2)Oc2cc(F)ccc2-n2cccc23)ccc1C(C)(C)O` [Compound 52]: the IC50 was at most 2000 nM. Next, `Cc1ccc2c(c1)OC1(CCN(C(=O)c3ccc(S(C)(=O)=O)c(C)c3)CC1)c1ccc(C#N)n1-2` [Compound 522]: at most 2000 nM. In the case of `COc1ccc(C(=O)N2CCC3(CC2)Oc2ccccc2-c2c3cnn2C)c(OC)c1` [Compound 187], the half-maximal inhibitory concentration (IC50) was at most 2000 nM.

As to `Cc1ccc(C(=O)N2CCC3(CC2)Oc2ccccc2-n2cccc23)cc1Cl` [Compound 27], the IC50 is at most 2000 nM.

For the compound `Cc1c(CO)cccc1C(=O)N1CCC2(CC1)Oc1ccccc1-n1c(C#N)ccc12` [Compound 516], the IC50 was at most 2000 nM.

Regarding `COc1cnccc1C(=O)N1CCC2(CC1)Oc1ccccc1-c1c2cnn1C` [Compound 384], the concentration for half-maximal inhibition (IC50) was over 5000 nM.

Turning to `COc1cc(C(=O)N2CCC3(CC2)Oc2cc(Cl)ccc2-n2cccc23)ccc1O[C@H]1CCOC1` [Compound 690], the IC50 was 2000 to 5000 nM. On to `CCc1ccc(C(=O)N2CCC3(CC2)Oc2cc(COC)ccc2-n2cccc23)cc1OC` [Compound 669], for which the IC50 is at most 2000 nM. Turning to `Cn1ncc2c1-c1ccccc1OC21CCN(C(=O)c2cccc3c2OCCO3)CC1` [Compound 346], the IC50 is at most 2000 nM.

Take `COc1cc(OC(C)C)ccc1C(=O)N1CCC2(CC1)Oc1ccccc1-c1c2cnn1C` [Compound 694]: the concentration for half-maximal inhibition (IC50) was at most 2000 nM. As for `COc1ccc(C(=O)N2CCC3(CC2)Oc2ccccc2-n2c(C#N)ccc23)cc1C(F)(F)F` [Compound 826], the concentration for half-maximal inhibition (IC50) was at most 2000 nM. For `COc1cc(S(C)(=O)=O)ccc1C(=O)N1CCC2(CC1)Oc1ccccc1-c1c2cnn1C` [Compound 93], the half-maximal inhibitory concentration (IC50) was 2000 to 5000 nM. With `COc1cc(C(=O)N2CCC3(CC2)Oc2ccccc2-c2c3cnn2C)ccc1C(C)(C)C` [Compound 429], the IC50 was at most 2000 nM. For the compound `COc1cc(C(=O)N2CCC3(CC2)Oc2cc(Cl)ccc2-n2cccc23)ccc1OC1CCC(O)C1` (centres unmarked) [Compound 366], the IC50 was at most 2000 nM.

For the compound `Cc1nc2ccc(C(=O)N3CCC4(CC3)Oc3ccccc3-c3c4cnn3C)cc2s1` [Compound 324], the concentration for half-maximal inhibition (IC50) was over 5000 nM.

As for `Cn1ncc2c1-c1ccccc1OC21CCN(C(=O)c2ccc(OC(F)(F)F)c(Cl)c2)CC1` [Compound 636], the 50% inhibitory concentration (IC50) is at most 2000 nM.

For the compound `O=C(c1ccc(C(O)C2CC2)cc1)N1CCC2(CC1)Oc1ccccc1-n1c(C(F)(F)F)ccc12` (centres unmarked) [Compound 815], the 50% inhibitory concentration (IC50) was at most 2000 nM. In the case of `Cc1cc(C(C)(C)O)ccc1C(=O)N1CCC2(CC1)Oc1ccccc1-c1c2cnn1C` [Compound 447], the half-inhibitory concentration (IC50) is at most 2000 nM. Regarding `Cc1cc(S(=O)(=O)C(C)C)ccc1C(=O)N1CCC2(CC1)Oc1ccccc1-n1c(C#N)ccc12` [Compound 426], the half-maximal inhibitory concentration (IC50) was at most 2000 nM. For the compound `CCOc1cccc(C(=O)N2CCC3(CC2)Oc2ccccc2-n2c3ccc2S(C)(=O)=O)c1F` [Compound 445], the half-maximal inhibitory concentration (IC50) was 2000 to 5000 nM.

Consider `COc1cc(C(=O)N2CCC3(CC2)Oc2ccccc2-n2cccc23)ccc1OC(C)C` [Compound 247], for which the IC50 is at most 2000 nM. Take `COc1cc(C(=O)N2CCC3(CC2)Oc2cc(Cl)ccc2-n2cccc23)ccc1C1(OC)COC1` [Compound 45]: the IC50 is at most 2000 nM. Regarding `COCCn1ccc(C(=O)N2CCC3(CC2)Oc2cc(Cl)ccc2-n2cccc23)cc1=O` [Compound 552], the IC50 is at most 2000 nM.

`COc1cc(C(=O)N2CCC3(CC2)Oc2cc(F)ccc2-n2cccc23)ccc1O[C@@H]1CCOC1` [Compound 683]: the IC50 is at most 2000 nM. Consider `CC[C@@H](C)Oc1ccc(C(=O)N2CCC3(CC2)Oc2cc(Cl)ccc2-n2cccc23)cc1OC` [Compound 681], for which the IC50 was at most 2000 nM. Next, `CC(C)NS(=O)(=O)c1ccc(C(=O)N2CCC3(CC2)Oc2ccccc2-c2nn(C)cc23)cc1` [Compound 501]: at most 2000 nM. In the case of `CCc1ccccc1C(=O)N1CCC2(CC1)Oc1ccccc1-c1c2cnn1C` [Compound 546] it was at most 2000 nM; in that of `CCn1ncc2c1-c1ccccc1OC21CCN(C(=O)c2ccc(OCCOC)c(OC)c2)CC1` [Compound 51], at most 2000 nM. Consider `COc1ccc(C(=O)N2CCC3(CC2)Oc2cc(Cl)ccc2-n2cccc23)cc1S(N)(=O)=O` [Compound 736], for which the half-inhibitory concentration (IC50) is over 5000 nM. In the case of `CC(C)[S+]([O-])c1ccc(C(=O)N2CCC3(CC2)Oc2ccccc2-c2c3cnn2C)cc1` (centres unmarked) [Compound 666] it was 2000 to 5000 nM. In the case of `COc1ccc(C(=O)N2CCC3(CC2)Oc2ccccc2-c2nn(C)cc23)c(OC)c1OC` [Compound 646] it was at most 2000 nM.

As for `Cn1cc2c(n1)-c1ccccc1OC21CCN(C(=O)c2cccc3cccnc23)CC1` [Compound 113], the 50% inhibitory concentration (IC50) was at most 2000 nM. In the case of `COc1ccc2c(c1)-c1c(cnn1C)C1(CCN(C(=O)c3ccccc3OC)CC1)O2` [Compound 16] it was at most 2000 nM. As for `Cn1ncc2c1-c1ccccc1OC21CCN(C(=O)c2ccc3nc(N)sc3c2)CC1` [Compound 524], the 50% inhibitory concentration (IC50) is at most 2000 nM. Turning to `Cc1cc(C(=O)N2CCC3(CC2)Oc2cccnc2-c2c3cnn2C)ccc1OC(C)C` [Compound 414], the IC50 was at most 2000 nM. In the case of `COc1cc(C(=O)N2CCC3(CC2)Oc2cc(F)ccc2-n2cccc23)ccc1OC[C@@H](O)CO` [Compound 588], the IC50 was at most 2000 nM.

Regarding `COCCOc1cc(F)c(C(=O)N2CCC3(CC2)Oc2ccccc2-n2cccc23)cc1OC` [Compound 532], the IC50 was at most 2000 nM.

As to `Cc1cc(C(=O)N2CCC3(CC2)Oc2ccccc2-c2c3cnn2C)cc(C)c1OC(C)C` [Compound 745], the concentration for half-maximal inhibition (IC50) was at most 2000 nM. Regarding `COc1cc(C)ccc1C(=O)N1CCC2(CC1)Oc1ccccc1-c1c2cnn1C` [Compound 465], the IC50 was at most 2000 nM. Take `CCc1ccc(C(=O)N2CCC3(CC2)Oc2cc(CN(C)C)ccc2-n2cccc23)cc1OC` [Compound 454]: the IC50 is 2000 to 5000 nM. Consider `O=C(c1ccc(S(=O)(=O)[C@H]2CCOC2)cc1)N1CCC2(CC1)Oc1ccccc1-n1c(C(F)(F)F)ccc12` [Compound 151], for which the IC50 was at most 2000 nM. `COc1cc(C(=O)N2CCC3(CC2)Oc2ccccc2-n2c(C#N)ccc23)ccc1OCC(C)C` [Compound 755]: the IC50 was at most 2000 nM. Take `COc1cc(C(=O)N2CCC3(CC2)Oc2ccccc2-n2cccc23)ccc1OC[C@H](C)OC` [Compound 48]: the IC50 is at most 2000 nM. In the case of `COc1cc(C(=O)N2CCC3(CC2)Oc2ccccc2-n2cccc23)ccc1OCCOC(F)(F)F` [Compound 191] it was at most 2000 nM. `CC(C)CS(=O)(=O)c1ccc(C(=O)N2CCC3(CC2)Oc2ccccc2-c2c3cnn2C)cc1` [Compound 423]: the IC50 is at most 2000 nM. On to `COC[C@@H](C)Oc1ccc(C(=O)N2CCC3(CC2)Oc2ccccc2-n2cccc23)cc1C(F)(F)F` [Compound 237], for which the half-maximal inhibitory concentration (IC50) is at most 2000 nM. On to `COc1cc(C(=O)N2CCC3(CC2)Oc2ccccc2-n2c(C#N)ccc23)ccc1OC[C@H](O)CO` [Compound 398], for which the 50% inhibitory concentration (IC50) was in the range of 2000 to 5000 nM. Turning to `CCCOc1ccc(C(=O)N2CCC3(CC2)Oc2ccccc2-n2c(C)ccc23)cc1C(F)(F)F` [Compound 818], the half-maximal inhibitory concentration (IC50) was at most 2000 nM. With `CN(C)S(=O)(=O)c1ccc(C(=O)N2CCC3(CC2)Oc2ccccc2-c2c3cnn2C)cc1` [Compound 714], the IC50 fell in the range of 2000 to 5000 nM. In the case of `COCCOc1ccc(C(=O)N2CCC3(CC2)Oc2ccccc2-n2cccc23)cc1C#N` [Compound 62] it was at most 2000 nM; in that of `CCc1ccc(C(=O)N2CCC3(CC2)Oc2cc(Cl)ccc2-n2cccc23)cc1O` [Compound 489], 2000 to 5000 nM; in that of `O=C(c1ccccc1OC(F)F)N1CCC2(CC1)Oc1cc(Cl)ccc1-n1cccc12` [Compound 21], at most 2000 nM. Consider `COc1cc(C(=O)N2CCC3(CC2)Oc2cc(Cl)ccc2-n2cccc23)ccc1C(C)CO` (centres unmarked) [Compound 609], for which the IC50 was at most 2000 nM. In the case of `Cn1ncc2c1-c1ccccc1OC21CCN(C(=O)c2ccc(C3(O)COC3)cc2)CC1` [Compound 418] it was 2000 to 5000 nM; in that of `COCCCOc1ccc(C(=O)N2CCC3(CC2)Oc2ccccc2-n2cccc23)cc1OC` [Compound 83], at most 2000 nM; in that of `Cn1ncc2c1-c1ccccc1OC21CCN(C(=O)c2ccnc(N3CCCCC3)c2)CC1` [Compound 155], at most 2000 nM.

`COc1c(C)cc(C(=O)N2CCC3(CC2)Oc2ccccc2-c2c3cnn2C)cc1C` [Compound 801]: the IC50 is at most 2000 nM. Take `CCCOc1ccc(C(=O)N2CCC3(CC2)Oc2cc(Cl)ccc2-n2cccc23)cc1C(F)(F)F` [Compound 269]: the 50% inhibitory concentration (IC50) was at most 2000 nM.

Turning to `CC(C)(C)S(=O)(=O)c1ccc(C(=O)N2CCC3(CC2)Oc2ccccc2-c2nn(C(F)(F)F)cc23)cc1` [Compound 78], the half-maximal inhibitory concentration (IC50) is at most 2000 nM. Consider `CC(C)(C)S(=O)(=O)c1ccc(C(=O)N2CCC3(CC2)Oc2ccccc2-n2c(C(F)(F)F)ccc23)cc1` [Compound 483], for which the half-inhibitory concentration (IC50) was at most 2000 nM.
